Experiment [1] addresses T1, serotonine transporter (SERT) receptor (Homo sapiens, UniProt P31645).
T1 construct: expressed in transfected cells; host or cells: CHO cells
Kind of experiment: Binding assay SERT (h), [3H]imipramine, CHO cells. The following applies: read-out: SERT [%]. The procedure:
(§1) The specific ligand binding to the receptors is defined as the difference between the total binding and the nonspecific binding determined in the presence of an excess of so unlabelled ligand.
(§2) The specific Ligand binding to the receptor is defined as the difference between total and non-specific binding determined in the presence of an excess of unlabelled ligand. The compounds were tested at a concentration of 1×10^−6 M, and scintillation counting was the method of detection of ligand binding.

Experiment [2] relates to adrenergic α1 receptor. Kind of experiment: Binding assay α1 (non-selective), [3H]prazosin, rat cerebral cortex. The following applies: percent inhibition of control specific binding; compounds tested at 1×10^−6 M. The protocol:
as §1, §2

Experiment [3] addresses dopaminergic D3 receptor (Homo sapiens, UniProt P35462). Kind of experiment: Binding assay D3 (h), [3H]methyl-spiperone, CHO cells. Also on record: expressed in transfected cells; host or cells: CHO cells. The following applies: read-out: D3 [%]. The protocol:
as §1, §2

The target in experiment [4] is serotoninergic 5-HT6 receptor (Homo sapiens, UniProt P50406). Kind of experiment: Binding assay 5-HT6 (h), [3H]LSD, CHO cells. More on the design: expressed in transfected cells; host or cells: CHO cells. The following applies: read-out: 5-HT6. The protocol: as §1, §2
In experiment [5] the target is serotoninergic 5-HT7 receptor (Homo sapiens, UniProt P34969). Kind of experiment: Binding assay 5-HT7 (h), [3H]LSD, CHO cells. The following applies: read-out: 5-HT7. More on the design: expressed in transfected cells; host or cells: CHO cells. The protocol: as §1, §2
For experiment [6], the target named is dopaminergic D2 receptor (Homo sapiens, UniProt P14416). Kind of experiment: Binding assay D2S (h), [3H]methyl-spiperone, HEK-293 cells. More on the design: expressed in transfected cells; host or cells: HEK-293 cells. The following applies: read-out: D2 [%]. The protocol: as §1, §2
In experiment [7] the target is T2, serotoninergic 5-HT1A receptor (Homo sapiens, UniProt P08908).
T2 sequence (P08908 1-422): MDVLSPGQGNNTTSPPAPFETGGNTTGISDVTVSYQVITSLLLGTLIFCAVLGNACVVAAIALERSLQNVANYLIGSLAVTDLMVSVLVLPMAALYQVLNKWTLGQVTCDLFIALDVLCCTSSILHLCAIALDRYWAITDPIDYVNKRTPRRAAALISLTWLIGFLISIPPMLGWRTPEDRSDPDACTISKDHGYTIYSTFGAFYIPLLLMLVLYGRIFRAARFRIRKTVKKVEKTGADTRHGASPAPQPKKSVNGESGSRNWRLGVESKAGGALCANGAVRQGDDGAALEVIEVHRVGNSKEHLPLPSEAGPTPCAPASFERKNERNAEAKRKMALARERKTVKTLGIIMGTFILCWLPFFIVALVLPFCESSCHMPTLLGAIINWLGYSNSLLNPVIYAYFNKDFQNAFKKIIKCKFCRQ
Kind of experiment: Binding assay 5-HT1A (h), [3H]8-OH-DPAT, HEK-293 cells. Also on record: expressed in transfected cells; host or cells: HEK-293 cells. The following applies: read-out: 5-HT1A. The protocol: as §1, §2

The target in experiment [8] is serotoninergic 5-HT2A receptor (Homo sapiens, UniProt P28223). Kind of experiment: Binding assay 5-HT2A (h), [3H]ketanserin, HEK-293 cells. The following applies: read-out: 5-HT2A. More on the design: expressed in transfected cells; host or cells: HEK-293 cells. The procedure:
as §1, §2

T1 sequence (P31645 whole entry): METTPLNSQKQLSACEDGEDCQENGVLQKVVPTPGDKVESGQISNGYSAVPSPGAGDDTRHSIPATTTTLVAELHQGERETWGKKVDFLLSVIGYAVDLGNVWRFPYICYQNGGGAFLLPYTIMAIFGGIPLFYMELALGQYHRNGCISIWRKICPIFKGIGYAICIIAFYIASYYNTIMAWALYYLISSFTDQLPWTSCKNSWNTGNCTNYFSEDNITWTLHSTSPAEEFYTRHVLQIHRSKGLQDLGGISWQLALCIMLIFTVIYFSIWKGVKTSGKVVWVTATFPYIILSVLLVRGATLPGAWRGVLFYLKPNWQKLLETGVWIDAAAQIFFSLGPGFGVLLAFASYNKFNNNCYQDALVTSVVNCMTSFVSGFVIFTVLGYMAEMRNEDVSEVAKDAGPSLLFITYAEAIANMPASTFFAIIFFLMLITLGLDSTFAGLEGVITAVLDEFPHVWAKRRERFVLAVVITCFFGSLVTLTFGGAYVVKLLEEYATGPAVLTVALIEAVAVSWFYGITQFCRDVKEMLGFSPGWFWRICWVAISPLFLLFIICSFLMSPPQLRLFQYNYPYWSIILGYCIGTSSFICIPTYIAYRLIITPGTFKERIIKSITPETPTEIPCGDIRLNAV
Sequence of dopaminergic D3 receptor (P35462 whole entry): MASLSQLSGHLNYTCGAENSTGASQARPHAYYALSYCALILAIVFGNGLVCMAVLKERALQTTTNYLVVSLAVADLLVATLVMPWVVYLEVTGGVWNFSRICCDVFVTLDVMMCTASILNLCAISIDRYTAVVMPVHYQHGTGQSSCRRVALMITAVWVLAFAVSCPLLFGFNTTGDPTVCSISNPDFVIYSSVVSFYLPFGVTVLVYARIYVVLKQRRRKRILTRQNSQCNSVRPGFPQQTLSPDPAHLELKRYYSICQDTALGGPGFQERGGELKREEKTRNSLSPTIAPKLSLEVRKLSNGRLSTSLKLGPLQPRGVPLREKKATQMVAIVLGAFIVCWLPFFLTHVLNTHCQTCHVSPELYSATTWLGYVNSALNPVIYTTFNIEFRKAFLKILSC
Sequence of serotoninergic 5-HT2A receptor (P28223 whole entry): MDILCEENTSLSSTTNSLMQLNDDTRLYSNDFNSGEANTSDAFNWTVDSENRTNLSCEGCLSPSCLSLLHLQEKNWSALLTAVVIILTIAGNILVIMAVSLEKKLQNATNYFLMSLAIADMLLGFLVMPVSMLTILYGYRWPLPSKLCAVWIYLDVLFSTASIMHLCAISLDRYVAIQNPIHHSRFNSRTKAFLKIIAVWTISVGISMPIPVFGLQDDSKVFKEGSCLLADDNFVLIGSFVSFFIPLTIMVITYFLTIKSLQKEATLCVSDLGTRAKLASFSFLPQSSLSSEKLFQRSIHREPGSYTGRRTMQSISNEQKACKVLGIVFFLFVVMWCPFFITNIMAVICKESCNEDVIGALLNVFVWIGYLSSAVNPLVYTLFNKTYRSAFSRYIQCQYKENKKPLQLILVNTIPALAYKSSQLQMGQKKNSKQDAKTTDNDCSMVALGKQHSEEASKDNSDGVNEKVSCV
Sequence of serotoninergic 5-HT6 receptor (P50406 whole entry): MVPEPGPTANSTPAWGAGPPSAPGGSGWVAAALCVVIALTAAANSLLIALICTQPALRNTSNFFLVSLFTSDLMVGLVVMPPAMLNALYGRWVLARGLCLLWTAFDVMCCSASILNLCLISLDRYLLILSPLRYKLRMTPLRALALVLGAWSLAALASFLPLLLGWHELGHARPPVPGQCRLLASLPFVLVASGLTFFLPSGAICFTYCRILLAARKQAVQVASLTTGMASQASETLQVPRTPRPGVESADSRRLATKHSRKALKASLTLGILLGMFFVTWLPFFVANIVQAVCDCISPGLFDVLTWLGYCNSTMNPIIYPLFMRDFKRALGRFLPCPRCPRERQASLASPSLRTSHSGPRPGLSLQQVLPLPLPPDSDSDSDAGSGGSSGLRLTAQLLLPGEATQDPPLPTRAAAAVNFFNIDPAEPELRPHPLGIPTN
Sequence of dopaminergic D2 receptor (P14416 1-414 isoform P14416-2): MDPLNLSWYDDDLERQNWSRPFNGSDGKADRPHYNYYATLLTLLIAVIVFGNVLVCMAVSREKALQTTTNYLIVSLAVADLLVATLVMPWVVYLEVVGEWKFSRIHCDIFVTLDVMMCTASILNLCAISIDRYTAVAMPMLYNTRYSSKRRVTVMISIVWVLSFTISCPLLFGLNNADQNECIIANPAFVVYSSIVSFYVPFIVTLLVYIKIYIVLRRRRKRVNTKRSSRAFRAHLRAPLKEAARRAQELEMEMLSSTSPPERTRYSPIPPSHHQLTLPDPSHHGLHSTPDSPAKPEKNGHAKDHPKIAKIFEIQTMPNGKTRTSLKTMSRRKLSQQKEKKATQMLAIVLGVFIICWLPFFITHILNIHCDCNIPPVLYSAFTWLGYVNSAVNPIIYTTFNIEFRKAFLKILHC
Sequence of serotoninergic 5-HT7 receptor (P34969 whole entry): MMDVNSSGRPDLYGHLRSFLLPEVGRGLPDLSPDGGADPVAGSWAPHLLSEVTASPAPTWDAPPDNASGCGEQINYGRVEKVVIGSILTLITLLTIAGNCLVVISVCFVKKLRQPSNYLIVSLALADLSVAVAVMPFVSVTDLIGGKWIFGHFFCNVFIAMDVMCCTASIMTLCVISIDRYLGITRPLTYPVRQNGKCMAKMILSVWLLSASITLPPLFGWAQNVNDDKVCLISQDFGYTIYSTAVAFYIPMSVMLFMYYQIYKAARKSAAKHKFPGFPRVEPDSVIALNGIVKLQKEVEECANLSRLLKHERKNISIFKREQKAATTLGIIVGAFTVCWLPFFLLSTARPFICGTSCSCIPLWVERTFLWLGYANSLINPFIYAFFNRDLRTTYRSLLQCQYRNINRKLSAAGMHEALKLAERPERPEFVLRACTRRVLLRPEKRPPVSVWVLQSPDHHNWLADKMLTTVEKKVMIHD

Regarding `O=S(=O)(NCCCN1CCC(c2noc3cc(F)ccc23)CC1)c1cc2ccccc2o1` [Compound 349, N-[3-[4-(6-Fluoro-1,2-benzoxazol-3-yl)piperidin-1-yl]propyl]benzofuran-2-sulphonamide], the inhibition at 1 µM came out at 0% in experiment [1]; 100% in experiment [3]; 87% in experiment [4]; 91% in experiment [5]; 93% in experiment [6]; 49% in experiment [7]. In addition, the inhibition at 1 µM in experiment [8] was found to be 108%. In experiment [2], the “α1 [%]” value was found to be 98%.

For `O=S(=O)(NCCCCN1CCN(c2nsc3ccccc23)CC1)c1ccc2cn[nH]c2c1` [Compound 244, N-[4-[4-(1,2-Benzothiazol-3-yl)piperazin-1-yl]butyl]-1H-indazole-6-sulphonamide], the inhibition at 1 µM in experiment [1] turned out to be 19%; in experiment [3] it was 91%; in experiment [4], 81%; in experiment [5], 98%; in experiment [6] it was 105%; in experiment [7], 69%. The inhibition at 1 µM in experiment [8] was 96%. The “α1 [%]” value in experiment [2] is on record as 98%.

In the case of `O=S(=O)(NCCCCN1CCN(c2nsc3ccccc23)CC1)c1ccc(Cl)cc1` [Compound 227, N-[4-[4-(1,2-Benzothiazol-3-yl)piperazin-1-yl]butyl]-4-chlorobenzenesulphonamide], the inhibition at 1 µM is 2% in experiment [1]; 90% in experiment [3]; 76% in experiment [4]; 94% in experiment [5]; 104% in experiment [6]; 89% in experiment [7]. The inhibition at 1 µM in experiment [8] came out at 90%. The “α1 [%]” value in experiment [2] is given as 92%.

For `Cc1cccc(S(=O)(=O)NCCCCN2CCN(c3cccc4c3OCCO4)CC2)c1` [Compound 395, N-[4-[4-(2,3-Dihydro-1,4-benzodioxin-5-yl)piperazin-1-yl]butyl]-3-methylbenzenesulphonamide], the inhibition at 1 µM in experiment [1] is 69%; in experiment [3], 87%; in experiment [4], -35%; in experiment [5], 83%; in experiment [6], 61%; in experiment [7], 75%. For the same compound, the inhibition at 1 µM in experiment [8] stood at 61%. In addition, in experiment [2], the “α1 [%]” value is 92%.

In the case of `O=S(=O)(NCCCCN1CCN(c2cccc3c2OCCO3)CC1)c1cccc2ccccc12` [Compound 385, N-[4-[4-(2,3-Dihydro-1,4-benzodioxin-5-yl)piperazin-1-yl]butyl]naphthalene-1-sulphonamide], the inhibition at 1 µM in experiment [1] is 6%; in experiment [3] it was 89%; in experiment [4], 10%; in experiment [5], 99%; in experiment [6], 75%; in experiment [7], 103%. Besides, the inhibition at 1 µM in experiment [8] was 77%. In experiment [2], the “α1 [%]” value came to 96%.

In the case of `Cc1cc(S(=O)(=O)NCCCCN2CCC(c3noc4cc(F)ccc34)CC2)c(C)s1` [Compound 309, N-[4-[4-(6-Fluoro-1,2-benzoxazol-3-yl)piperidin-1-yl]butyl]-2,5-dimethyl-thiophene-3-sulphonamide], the inhibition at 1 µM in experiment [1] was -5%; in experiment [3], 90%; in experiment [4] it was 79%; in experiment [5] it was 87%; in experiment [6], 84%; in experiment [7] it was 64%. Also, the inhibition at 1 µM in experiment [8] amounted to 88%. Further, the “α1 [%]” value in experiment [2] amounted to 103%.

Take `O=S(=O)(NCCCN1CCC(c2noc3cc(F)ccc23)CC1)c1cc2ccccc2s1` [Compound 345, N-[3-[4-(6-Fluoro-1,2-benzoxazol-3-yl)piperidin-1-yl]propyl]benzothiophene-2-sulphonamide]: the inhibition at 1 µM in experiment [1] was -10%; in experiment [3], 100%; in experiment [4], 91%; in experiment [5], 91%; in experiment [6] it was 109%; in experiment [7], 45%. For the same compound, the inhibition at 1 µM in experiment [8] was found to be 93%. Besides, the “α1 [%]” value in experiment [2] amounted to 102%.

As for `O=S(=O)(NCCCCN1CCN(c2nsc3ccccc23)CC1)c1ccc(F)c(F)c1` [Compound 226, N-[4-[4-(1,2-Benzothiazol-3-yl)piperazin-1-yl]butyl]-3,4-difluorobenzenesulphonamide], the inhibition at 1 µM in experiment [1] was found to be 4%; in experiment [3], 90%; in experiment [4] it was 78%; in experiment [5], 92%; in experiment [6] it was 87%; in experiment [7], 90%. Besides, in experiment [8], the inhibition at 1 µM was 100%. In addition, the “α1 [%]” value in experiment [2] worked out at 94%.

`O=S(=O)(NCCCN1CCN(c2cccc3c2OCCO3)CC1)c1ccc(F)cc1` [Compound 408, N-[3-[4-(2,3-Dihydro-1,4-benzodioxin-5-yl)piperazin-1-yl]propyl]-4-fluorobenzenesulphonamide]: the inhibition at 1 µM in experiment [1] was -18%; in experiment [3], 70%; in experiment [4], 35%; in experiment [5], 83%; in experiment [6], 40%; in experiment [7] it was 101%. For the same compound, the inhibition at 1 µM in experiment [8] was -50%. Also, the “α1 [%]” value in experiment [2] stood at 70%.

For `Cc1[nH]c2ccc(Cl)cc2c1C1=CCN(CCCNS(=O)(=O)c2ccc(Cl)cc2)CC1` [Compound 444, 4-Chloro-N-[3-[4-(5-chloro-2-methyl-1H-indol-3-yl)-3,6-dihydro-2H-pyridin-1-yl]propyl]-benzenesulphonamide], the inhibition at 1 µM in experiment [1] turned out to be 44%; in experiment [3], 74%; in experiment [4], 87%; in experiment [5], 59%; in experiment [7] it was 51%; in experiment [8], 65%. Moreover, the “α1 [%]” value in experiment [2] is recorded as 26%.

Regarding `Cc1[nH]c2ccc(Cl)cc2c1C1=CCN(CCNS(=O)(=O)c2cccc(O)c2)CC1` [Compound 453, N-[2-[4-(5-Chloro-2-methyl-1H-indol-3-yl)-3,6-dihydro-2H-pyridin-1-yl]ethyl]-3-hydroxybenzenesulphonamide], the inhibition at 1 µM in experiment [1] came out at 23%; in experiment [3] it was 56%; in experiment [4] it was 107%; in experiment [5], 76%; in experiment [6], 48%. Also, the “α1 [%]” value in experiment [2] is reported as 23%.

For `Cc1[nH]c2ccc(Cl)cc2c1C1=CCN(CCNS(=O)(=O)c2ccc(Cl)cc2)CC1` [Compound 451, 4-Chloro-N-[2-[4-(5-chloro-2-methyl-1H-indol-3-yl)-3,6-dihydro-2H-pyridin-1-yl]ethyl]-benzensulphonamide], the inhibition at 1 µM was 32% in experiment [1]; 30% in experiment [3]; 97% in experiment [4]; 25% in experiment [5]; 46% in experiment [6]. For the same compound, the “α1 [%]” value in experiment [2] is reported as −4%.

With `O=S(=O)(NCCCCN1CCN(c2cccc3c2OCCO3)CC1)c1ccc2cc(Cl)ccc2c1` [Compound 387, 6-Chloro-N-[4-[4-(2,3-dihydro-1,4-benzodioxin-5-yl)piperazin-1-yl]butyl]naphthalene-2-sulphonamide], the inhibition at 1 µM in experiment [1] is -14%; in experiment [3], 93%; in experiment [4] it was 26%; in experiment [5], 96%; in experiment [7] it was 100%; in experiment [8] it was 90%. In addition, the “α1 [%]” value in experiment [2] is reported as 86%.

In the case of `Cc1[nH]c2ccc(Cl)cc2c1C1=CCN(CCNS(=O)(=O)c2cccc(F)c2)CC1` [Compound 450, N-[2-[4-(5-Chloro-2-methyl-1H-indol-3-yl)-3,6-dihydro-2H-pyridin-1-yl]ethyl]-3-fluorobenzenesulphonamide], the inhibition at 1 µM was 54% in experiment [1]; 39% in experiment [3]; 96% in experiment [4]; 50% in experiment [5]; 15% in experiment [6]. The “α1 [%]” value in experiment [2] is on record as −1%.

(Values after patent US8822517B2, “Arylosulfonamides for the treatment of CNS diseases” (Adamed SP. Z O.O., priority 2010, dated 2014).)
